From article PMC7582905, “Effect of Disulfide Cyclization of Ultrashort Cationic Lipopeptides on Antimicrobial Activity and Cytotoxicity” (International Journal of Molecular Sciences, 2020)
Where two headings read alike, the source gives them in different places. Where a SMILES comes first, the peptide text is derived from it. Bridges are numbered along the chain shown (N, C = ends). The star is where a group is joined. Palmitoyl = CCCCCCCCCCCCCCCC(=O)*

Legend:
Assay type in all cases: cell-based
[1] = tested on: Pseudomonas aeruginosa ATCC 9027
Experimental: (§1) The Staphylococcus aureus ATCC 25923, Staphylococcus epidermidis ATCC 14990, Escherichia coli ATCC 25922, Pseudomonas aeruginosa ATCC 9027, Candida albicans ATCC 10231, Candida glabrata ATCC 15126, Candida lipolytica PCM 2680-FY, and Candida tropicalis PCM 2709-FY strains were acquired from the Polish Collection of Microorganisms (PCM, Polish Academy of Sciences, Wrocław, Poland) and from the American Type Culture Collection (ATCC). All the strains were stored at −80 °C in Roti-Store cryo vials and before the tests were transferred into fresh Mueller–Hinton broth (MHB, Biocorp, Warsaw, Poland) for bacteria or RPMI-1640 (Sigma-Aldrich, Steinheim, Germany) for fungi and incubated for 24 h at 37 °C. Then, the cultures were seeded on Mueller–Hinton agar (BioMaxima, Lublin, Poland) or Sabouraud dextrose agar (SDA, BioMaxima, Lublin, Poland) plates, respectively, and incubated as just mentioned. These agar cultures were used for further microbiological assays. Cell densities for all assays were adjusted spectrophotometrically (Multiskan GO Microplate Spectrophotometer, Thermo Fisher Scientific, Vantaa, Finland) at 600 and 660 nm for bacteria and fungi, respectively.
(§2) The assay was performed to evaluate the effect of the lipopeptides in preventing biofilm formation. The preparation of inoculums was followed by a ca. 500-fold dilution of the 24 h cultures of microorganisms. Briefly, 50 μL of the compounds in the concentration range, diluted in appropriate medium, were prepared on 96-well polystyrene flat-bottom plates. Subsequently, the 50 μL of the bacterial/fungal inoculums were added to reach the same microbial density as that in the MBEC assay. After 24 h of incubation at 37 °C, the wells were rinsed three times with PBS and the fresh media with resazurin (4 g/L) were added. The MBICs were read after 1 h. All experiments were conducted in triplicate.

[2] = tested on: Candida glabrata ATCC 15126
Experimental: as §1, §2

[3] = tested on: Staphylococcus aureus ATCC 25923
Experimental: as §1, §2

[4] = tested on: Candida albicans ATCC 10231
Experimental: as §1, §2

[5] = tested on: Staphylococcus epidermidis ATCC 14990
Experimental: as §1, §2

[6] = tested on: Candida lipolytica PCM 2680-FY
Experimental: as §1, §2

[7] = tested on: Candida tropicalis PCM 2709-FY
Experimental: as §1, §2

[8] = tested on: Escherichia coli ATCC 25922
Experimental: as §1, §2

[9] = tested on: human red blood cells (hRBCs); assay: Hemolysis assay; conditions: peptide concentration causing 50% hemolysis; 4% (v/v) hRBCs in PBS, 1 h, 37 °C, absorbance 540 nm, triplicate
Experimental: The hemolysis assay was performed by using the method reported previously. Fresh human red blood cells (hRBCs) with anticoagulant (EDTA) were rinsed three times with a PBS by centrifugation at 800× g for 10 min and diluted with PBS. The lipopeptides were serially diluted on a 96-well microtiter polystyrene plate and hRBCs were added up to a final volume of 100 μL. The peptide concentration ranged between 0.5 and 256 μg/mL and the final hRBCs concentration was 4% (v/v). Controls for zero hemolysis (blank) and 100% hemolysis consisted of hRBCs suspended in PBS and 1% of Triton-X 100, respectively. The plate was incubated for 1 h at 37 °C and then centrifuged (800× g, 10 min, 4 °C). Subsequently, the supernatant was […] to new microtiter plates and the absorbance at 540 nm was measured. All experiments were conducted in triplicate. HC50 was calculated using an ic50.tk tool. Protocol of the study received approval from the local Bioethics Committee at the Medical University of Gdańsk (NKBBN/262/2019, approval date: 10 June 2019).

[10] = tested on: human keratinocytes (HaCaT); assay: MTT assay; conditions: 24 h incubation at 37 °C, six replicates per concentration, repeated at least twice
Experimental: (§3) To assess the cytotoxicity of the test lipopeptides (IC50), the classic MTT assay on 96-well polystyrene plates was performed for human keratinocytes (HaCaT) and human cervical adenocarcinoma cell line (HeLa S3) acquired from the ATCC. The assay utilizes colorimetric determination of the cell metabolic activity and the color intensity reflects the number of live cells that can be measured spectrophotometrically. The cell line was cultured in a Dulbecco’s modified Eagle Medium (Invitrogen) supplemented with 10% fetal bovine serum (v/v), 100 units/mL of penicillin, 100 μg/mL of streptomycin, and 2 mM l-glutamine and was stored at 37 °C in a humidified 5% CO2 incubator. Briefly, a day after plating of 500 cells per well, a series of concentrations (0.1–200 μg/mL) of the test compounds were applied. DMSO was added to the control cells at a final concentration of 1.0% (v/v), which was related to the maximal concentration of the solvent compounds used in the experiment. After 24 h of incubation with the lipopeptides at 37 °C in a humidified 5% CO2 incubator, a medium containing 1 mg/mL of MTT (3-(4,5-dimethylthiazol-2-yl)-2,5-diphenyltetrazolium bromide) was added to the wells up to a final concentration of 0.5 mg/mL. Subsequently, the plates were incubated at 37 °C for 4 h. Then, the medium was removed by suction, and the formazan product was solubilized with DMSO. The background absorbance at 630 nm was subtracted from that at 570 nm for each well (Epoch, BioTek Instruments, Winooski, VT, USA). Six replicates were conducted for each concentration. All experiments were repeated at least twice and the resulting IC50 values were calculated with a GraFit 7 software (v. 7.0, Erithacus, Berkley, CA, USA).

[11] = tested on: human cervical adenocarcinoma cell line (HeLa S3); assay: MTT assay; conditions: 24 h incubation at 37 °C, six replicates per concentration, repeated at least twice
Experimental: as §3

[12] = prevention of biofilm formation on polystyrene plates, 24 h at 37 °C, resazurin, triplicate

Row | SMILES | HeLa IC50 [11] [µg/mL] | MBIC P. aeruginosa [1, 12] [µg/mL] | MBIC C. glabrata [2, 12] [µg/mL] | MBIC S. aureus [3, 12] [µg/mL] | MBIC C. albicans [4, 12] [µg/mL] | MBIC S. epidermidis [5, 12] [µg/mL] | MBIC C. lipolytica [6, 12] [µg/mL] | MBIC C. tropicalis [7, 12] [µg/mL] | MBIC E. coli [8, 12] [µg/mL] | HC50 [9] [µg/mL] | HaCaT IC50 [10] [µg/mL] | MBIC P. aeruginosa ([1]; ATCC 9027, 24 h) [µg/mL] | MBIC C. glabrata ([2]; ATCC 15126, 24 h) [µg/mL] | MBIC S. aureus ([3]; ATCC 25923, 24 h) [µg/mL] | MBIC C. albicans ([4]; ATCC 10231, 24 h) [µg/mL] | MBIC S. epidermidis ([5]; ATCC 14990, 24 h) [µg/mL] | MBIC C. lipolytica ([6]; 24 h) [µg/mL] | MBIC C. tropicalis ([7]; PCM 2709-FY, 24 h) [µg/mL] | MBIC E. coli ([8]; ATCC 25922, 24 h) [µg/mL]
1 | CCCCCCCCCCCCCCCC(=O)N[C@H]1CSSC[C@@H](C(N)=O)NC(=O)[C@H](CCCCN)NC(=O)[C@H](CCCCN)NC(=O)[C@H](CCCCN)NC(=O)[C@H](CCCCN)NC1=O [C2, C16-CKKKKC-NH2] (Palmitoyl-CKKKKC-NH2; disulfide 1-6) | 17.9 ± 2.1 | 64 | 32 | 16 | 16 | 4 | 8 | 8 | 32 | 30.6 ± 1.1 | 26.9 ± 1.9 | – | – | – | – | – | – | – | –
2 | CCCCCCCCCCCCCCCC(=O)N[C@@H](CCCNC(=N)N)C(=O)N[C@@H](CCCNC(=N)N)C(=O)N[C@@H](CCCCN)C(=O)N[C@@H](CCCCN)C(N)=O [L7, C16-RRKK-NH2] (Palmitoyl-RRKK-NH2) | 3.0 ± 0.4 | – | – | – | – | – | – | – | – | 65.4 ± 1.5 | 8.1 ± 1.1 | 64 | 32 | 16 | 32 | 16 | 16 | 8 | 32

Continued, in another order:

Row | HeLa IC50 [11] [µg/mL] | SMILES | MBIC P. aeruginosa [1, 12] [µg/mL] | MBIC C. glabrata [2, 12] [µg/mL] | MBIC S. aureus [3, 12] [µg/mL] | MBIC C. albicans [4, 12] [µg/mL] | MBIC S. epidermidis [5, 12] [µg/mL] | MBIC C. lipolytica [6, 12] [µg/mL] | MBIC C. tropicalis [7, 12] [µg/mL] | MBIC E. coli [8, 12] [µg/mL] | HC50 [9] [µg/mL] | HaCaT IC50 [10] [µg/mL] | MBIC P. aeruginosa ([1]; ATCC 9027, 24 h) [µg/mL] | MBIC C. glabrata ([2]; ATCC 15126, 24 h) [µg/mL] | MBIC S. aureus ([3]; ATCC 25923, 24 h) [µg/mL] | MBIC C. albicans ([4]; ATCC 10231, 24 h) [µg/mL] | MBIC S. epidermidis ([5]; ATCC 14990, 24 h) [µg/mL] | MBIC C. lipolytica ([6]; 24 h) [µg/mL] | MBIC C. tropicalis ([7]; PCM 2709-FY, 24 h) [µg/mL] | MBIC E. coli ([8]; ATCC 25922, 24 h) [µg/mL]
3 | 38.8 ± 4.4 | CCCCCCCCCCCCCCCC(=O)N[C@H]1CSSC[C@@H](C(N)=O)NC(=O)[C@H](CCCCN)NC(=O)[C@H](CCCCN)NC(=O)[C@H](CCCCN)NC(=O)[C@H](CCCNC(=N)N)NC1=O [C3, C16-CRKKKC-NH2] (Palmitoyl-CRKKKC-NH2; disulfide 1-6) | – | – | – | – | – | – | – | – | 66.5 ± 14.8 | 36.8 ± 2.7 | 64 | 8 | 16 | 8 | 8 | 2 | 4 | 64
4 | 30.4 ± 2.5 | CCCCCCCCCCCCCCCC(=O)N[C@H]1CSSC[C@@H](C(N)=O)NC(=O)[C@H](CCCNC(=N)N)NC(=O)[C@H](CCCCN)NC(=O)[C@H](CCCCN)NC(=O)[C@H](CCCCN)NC1=O [C6, C16-CKKKRC-NH2] (Palmitoyl-CKKKRC-NH2; disulfide 1-6) | – | – | – | – | – | – | – | – | 71.0 ± 6.4 | 45.7 ± 13.5 | 64 | 8 | 32 | 16 | 8 | 8 | 8 | 64
5 | 20.9 ± 2.1 | CCCCCCCCCCCCCCCC(=O)N[C@H]1CSSC[C@@H](C(N)=O)NC(=O)[C@H](CCCCN)NC(=O)[C@H](CCCCN)NC(=O)[C@H](CCCNC(=N)N)NC(=O)[C@H](CCCNC(=N)N)NC1=O [C7, C16-CRRKKC-NH2] (Palmitoyl-CRRKKC-NH2; disulfide 1-6) | – | – | – | – | – | – | – | – | 92.0 ± 9.6 | 21.3 ± 8.2 | 128 | 16 | 16 | 16 | 16 | 8 | 8 | 128
